Laboratory results: patent US9834579B2, “Crystalline forms of s-acetyl glutathione, their preparations and uses in pharmaceutical and nutraceutical formulations” (Gnosis S.p.A., priority 2013, dated 2017)

Assays:
[1] = accelerated stability test of solid forms at 50° C. for 6 months (European Pharmacopoeia); format: physicochemical; conditions: for GSH / GSSG / SAG / Unknown impurities (single) / Unknown impurities (total): % area
Procedure: The stability of the various solid forms was tested as described in the European Pharmacopoeia (EP), by conducting accelerated stability tests at 50° C. for 6 months.

[2] = dissolution rate in water; format: physicochemical; conditions: comparison of solid forms
[3] = powder density / apparent density; format: physicochemical; conditions: for Apparent density: product of the example after drying
[4] = flowability of the powders; format: physicochemical; conditions: comparison of crystalline forms
[5] = heat and mechanical stress, conversion of one polymorph to the other; format: physicochemical; conditions: heat and mechanical stresses
[6] = oral, seven healthy volunteers, doses of up to 3 g per dose; cited from earlier work
[7] = compared with GSH; cited from earlier work
[8] = test system: fibroblasts originating from individuals suffering from a genetic glutathione synthetase deficiency; conditions: addition to fibroblast cultures; cited from earlier work
[9] = test system: cell levels of GSH impoverished by viral infections; conditions: cells impoverished by viral infections, compared with GSH; cited from earlier work
human tumour cell lines = conditions: some human tumour cell lines in vitro; cited from earlier work

Structure (SMILES)	SAG - assay value ([1]; 0 months) [%]	GSH ([1]; 0 months) [%]	GSSG ([1]; 0 months) [%]	SAG ([1]; 0 months) [%]	Unknown impurities (single) ([1]; 0 months) [%]	Unknown impurities (total) ([1]; 0 months) [%]	SAG - assay value ([1]; 1.5 months) [%]	GSH ([1]; 1.5 months) [%]	GSSG ([1]; 1.5 months) [%]	SAG ([1]; 1.5 months) [%]	Unknown impurities (single) ([1]; 1.5 months) [%]	Unknown impurities (total) ([1]; 1.5 months) [%]	SAG - assay value ([1]; 3 months) [%]	GSH ([1]; 3 months) [%]	GSSG ([1]; 3 months) [%]	SAG ([1]; 3 months) [%]	Unknown impurities (single) ([1]; 3 months) [%]	Unknown impurities (total) ([1]; 3 months) [%]	SAG - assay value ([1]; 4.5 months) [%]	GSH ([1]; 4.5 months) [%]	further results
CC(=O)SC[C@H](NC(=O)CC[C@H](N)C(=O)O)C(=O)NCC(=O)O [Amorphous, S-acetyl glutathione]	96.5	1.0	2.5	95.1	0.4	1.4	94.9	1.6	2.5	94.6	0.9	1.9	92.4	2.4	2.8	91.3	1.2	2.3	91.5	2.8	GSSG ([1]; 4.5 months): 2.9%; SAG ([1]; 4.5 months): 90.4%; Unknown impurities (single) ([1]; 4.5 months): 1.3%; Unknown impurities (total) ([1]; 4.5 months): 2.7%; SAG - assay value ([1]; 6 months): 89.9%; GSH ([1]; 6 months): 2.5%; GSSG ([1]; 6 months): 3.9%; SAG ([1]; 6 months): 88.6%; Unknown impurities (single) ([1]; 6 months): 1.5%; Unknown impurities (total) ([1]; 6 months): 3.5%; stability of the solid form (comparison) ([1]; 6 months, data of Table 3): much less stable than the crystalline forms; dissolution rate ([2]; listed as amorphous form): dissolves more rapidly
CC(=O)SC[C@H](NC(=O)CC[C@H](N)C(=O)O)C(=O)NCC(=O)O [Example 3, S-acetyl glutathione]	–	–	–	–	–	–	–	–	–	–	–	–	–	–	–	–	–	–	–	–	Apparent density [3]: 0.35 g/mL
CC(=O)SC[C@H](NC(=O)CC[C@H](N)C(=O)O)C(=O)NCC(=O)O [Form A, S-acetyl glutathione]	98.6	0.1	2.2	96.3	0.4	1.0	98.3	0.1	2.2	95.5	0.5	1.7	97.8	0.2	2.3	95.1	0.5	1.9	97.6	0.2	GSSG ([1]; 4.5 months): 2.4%; SAG ([1]; 4.5 months): 94.7%; Unknown impurities (single) ([1]; 4.5 months): 0.7%; Unknown impurities (total) ([1]; 4.5 months): 2.0%; SAG - assay value ([1]; 6 months): 97.4%; GSH ([1]; 6 months): 0.3%; GSSG ([1]; 6 months): 2.4%; SAG ([1]; 6 months): 94.4%; Unknown impurities (single) ([1]; 6 months): 0.9%; Unknown impurities (total) ([1]; 6 months): 2.0%; flowability of the powder [4]: better flowability; powder density [3]: 0.2 to 0.25 g/mL; Apparent density ([3]; listed as Example 1): 0.15 to 0.25 g/mL; conversion of one polymorph to the other [5]: not found
CC(=O)SC[C@H](NC(=O)CC[C@H](N)C(=O)O)C(=O)NCC(=O)O [Form B, S-acetyl glutathione]	99.3	0.2	1.1	97.7	0.2	0.8	99.1	0.3	1.2	97.1	0.5	0.9	98.7	0.7	0.8	96.7	0.7	1.1	98.3	0.9	GSSG ([1]; 4.5 months): 1.1%; SAG ([1]; 4.5 months): 96.0%; Unknown impurities (single) ([1]; 4.5 months): 0.7%; Unknown impurities (total) ([1]; 4.5 months): 1.3%; SAG - assay value ([1]; 6 months): 98.1%; GSH ([1]; 6 months): 1.0%; GSSG ([1]; 6 months): 0.9%; SAG ([1]; 6 months): 95.7%; Unknown impurities (single) ([1]; 6 months): 0.8%; Unknown impurities (total) ([1]; 6 months): 2.0%; powder density [3]: 0.4 g/mL; Apparent density ([3]; listed as Example 2): 0.25 to 0.40 g/mL; conversion of one polymorph to the other [5]: not found; dissolution rate [2]: most rapid dissolution rate
N[C@@H](CCC(=O)N[C@@H](CS)C(=O)NCC(=O)O)C(=O)O [GSH, γ-L-glutamyl-L-cysteinylglycine]	–	–	–	–	–	–	–	–	–	–	–	–	–	–	–	–	–	–	–	–	increase in the blood levels of glutathione, cysteine and glutamate [6]: no significant increases
CC(=O)SC[C@H](NC(=O)CC[C@H](N)C(=O)O)C(=O)NCC(=O)O [SAG, S-acetyl glutathione]	–	–	–	–	–	–	–	–	–	–	–	–	–	–	–	–	–	–	–	–	stability in the plasma [7]: more stable in the plasma; replenishment of the intracellular level of GSH [8]: able to replenish the intracellular level of GSH effectively; replenishing the cell levels of GSH [9]: more effective than GSH; induction of apoptosis (non-GSH-dependent activity) (human tumour cell lines): induces apoptosis
